Laboratory results taken from patent US11465998B2, “Therapeutic compounds and methods of use thereof” (Regents of the University of Minnesota, priority 2019, dated 2022).
Read-outs that look alike come from different tables or passages of the source.

Molecular target: T1, human NOD2 (Homo sapiens, UniProt Q9HC29)
T1 construct: host or cells: HEK293
Assay: human NOD2 specific reporter gene assay (NF-κB induction)
Format: cell-based
Protocol: Example 5: High-throughput screens in porcine blood: Curated compound collections were obtained from the Institute for Therapeutics Discovery & Development at the University of Minnesota. Compound transfers from source (80 nL of 10 mM stocks) to assay plates were performed using an Echo 550 acoustic liquid handler (Labcyte, Sunnyvale, Calif.). For most libraries, a target final concentration of 10 μM of compound (in a final volume of 80 μL for the assay described below) was achieved. Compound plates were hermetically sealed and stored at −80° C. until used. Fresh, heparin-anticoagulated porcine blood from healthy animals were obtained under USDA supervision from Midwest Research Swine, LLC (Glencoe, Minn.). 80 μL of hematocrit-enriched porcine blood (low-speed centrifugation, followed by resuspension in DMEM supplemented with 10% fetal bovine serum) was added to compound plates and incubated for 15 h. The following day, the plates were briefly centrifuged (100 g, 10 min), and supernatants were transferred using an automated ViaFlow 384 transfer device (Integra Biosciences Corp., Hudson, N.H.) to assay plates containing of 10^6 cells/mL of each of the following NF-κB/secreted alkaline phosphatase reporter cells suspended in HEK-Blue Detection Media: human IFN-α/β, human IFN-γ, human TNF-α/IL-1β (InvivoGen, San Diego, Calif.). NF-κB translocation was assayed spectrophotometrically using an alkaline phosphatase-specific chromogen (present in HEK-detection medium as supplied by InvivoGen) at 620 nm using a SpectraMax M4 multimode microplate reader (Molecular Devices, Sunnyvale, Calif.). Z′ factors were computed for each TLR/NOD-specific signals. Hits were defined as signals >4σ (in-plate standard deviations for test compounds above negative control means), were deconvoluted in full dose-response assays in human TLR-2/-3/-4/-5/-7/-8/-9 and NOD-1/NOD-2-specific reporter cells in liquid handler-assisted assay formats as described previously. Example 6: Murine knockout cell-lines: The following reagents were obtained through BEI Resources, NIAID, NIH: the microglial cell line derived from MAL/MyD88 double knockout Mice (NR-9904), and the macrophage cell line derived from TRIF/TRAM knockout mice (NR-9568). Example 7: Human NOD1/2-specific reporter gene assays (NF-κB induction), and TLR-2/-3/-4/-5/-7/-8/-9/STING/ISG counter-screens: The induction of NF-κB was quantified using human TLR-2/-3/-4/-5/-7/-8/-9/NOD-1/NOD-2/STING/ISG-specific, rapid-throughput, liquid handler-assisted reporter gene assays as previously described by us (Wu, W. et al. J. Med. Chem. 2010, 53, 3198-3213; Shukla, N. M. et al. J. Med. Chem. 2010, 53, 4450-4465; Agnihotri, G. et al. J. Med. Chem. 2011, 54, 1490-1510 and Ukani, R. et al. Bioorg. Med. Chem. Lett. 2012, 22, 293-295). HEK293 cells stably co-transfected with the appropriate hTLR and secreted alkaline phosphatase (sAP) were maintained in HEK-Blue™ Selection medium. Stable expression of secreted alkaline phosphatase (sAP) under control of NF-κB/AP-1/IRF promoters is inducible by appropriate innate immune stimuli, and extracellular sAP in the supernatant is proportional to NF-κB/IRF induction. Reporter cells were incubated at a density of ˜10^5 cells/ml in a volume of 80 μl/well, in 384-well, flat-bottomed, cell culture-treated microtiter plates in the presence of graded concentrations of stimuli. sAP was assayed spectrophotometrically using an alkaline phosphatase-specific chromogen (present in HEK-detection medium as supplied by InvivoGen) at 620 nm. Example 8: Multiplexed immunoassays for human cytokines: Fresh human peripheral blood mononuclear cells (hPBMC) were isolated from human blood obtained by venipuncture in Cell Preparation Tubes (CPT, Beckton-Dickinson) with informed consent and as per guidelines approved by the University of Minnesota Human Subjects Experimentation Committee. Aliquots of PBMCs or THP-1 cells (10^5 cells in 100 μL/well) were stimulated for 16 h with graded concentrations of test compounds. […]

[1] = human NOD2 reporter gene assay, read-out: EC50 values, human NOD2 agonistic potency
[2] = human NOD2 specific reporter gene assay, arithmetic mean of quadruplicate samples, NA* indicates inactive under the tested conditions, read-out: hNOD2 Agonistic Activity (μM), EC50

T1 sequence (Q9HC29 whole entry): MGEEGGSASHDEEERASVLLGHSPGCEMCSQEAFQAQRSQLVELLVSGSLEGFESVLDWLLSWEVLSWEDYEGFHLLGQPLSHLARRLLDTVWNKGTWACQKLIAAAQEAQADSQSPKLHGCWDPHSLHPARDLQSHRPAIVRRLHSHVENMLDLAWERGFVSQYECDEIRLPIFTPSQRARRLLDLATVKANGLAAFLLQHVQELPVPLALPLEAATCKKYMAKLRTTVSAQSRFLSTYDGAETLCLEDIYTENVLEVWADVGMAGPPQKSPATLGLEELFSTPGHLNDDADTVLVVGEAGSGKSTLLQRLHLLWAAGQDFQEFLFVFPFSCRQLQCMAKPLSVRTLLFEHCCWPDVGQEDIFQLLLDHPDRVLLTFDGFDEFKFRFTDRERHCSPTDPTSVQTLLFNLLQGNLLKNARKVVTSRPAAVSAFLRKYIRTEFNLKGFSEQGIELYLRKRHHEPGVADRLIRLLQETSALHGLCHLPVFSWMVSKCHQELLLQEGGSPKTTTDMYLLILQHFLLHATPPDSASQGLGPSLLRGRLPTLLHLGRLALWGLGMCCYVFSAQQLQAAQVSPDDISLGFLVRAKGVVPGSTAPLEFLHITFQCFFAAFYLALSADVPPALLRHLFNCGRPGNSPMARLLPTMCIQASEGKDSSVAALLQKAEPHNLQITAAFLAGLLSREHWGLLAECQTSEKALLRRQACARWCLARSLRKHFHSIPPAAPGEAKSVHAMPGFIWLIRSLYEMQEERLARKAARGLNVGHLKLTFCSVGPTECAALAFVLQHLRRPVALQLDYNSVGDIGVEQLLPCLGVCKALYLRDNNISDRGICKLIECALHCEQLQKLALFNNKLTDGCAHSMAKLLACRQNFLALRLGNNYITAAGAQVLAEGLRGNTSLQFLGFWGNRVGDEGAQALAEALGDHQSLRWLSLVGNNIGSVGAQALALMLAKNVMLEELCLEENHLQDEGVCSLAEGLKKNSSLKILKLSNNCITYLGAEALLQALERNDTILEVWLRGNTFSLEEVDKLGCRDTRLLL

Question: Which EC50 [1] does the source give for `CCCCCCc1nc2ccccc2n1-c1csc(C(N)=O)c1` [Compound 7f, 4-(2-Hexyl-1H-benzo[d]imidazol-1-yl)thiophene-2-carboxamide] here?
Answer: 0.66 µM

Question: What about the EC50 [2] of the same compound?
Answer: 0.664 µM

Question: Which results are given for `CCCCCc1nc2ccccc2n1-c1csc(C(N)=O)c1` [Compound 7e, 4-(2-Pentyl-1H-benzo[d]imidazol-1-yl)thiophene-2-carboxamide]?
Answer: EC50 [1]: 0.68 µM; EC50 [2]: 0.684 µM
